# Data taken from patent US12673946B2, “Pyrimidin-4(3H)-one derivatives as TRPV4 antagonists” (RaQualia Pharma Inc., priority 2020, dated 2026).
# pIC50: −log10 of the molar value.
# Target: T1, human TRPV4 (Homo sapiens, UniProt Q9HBA0)
# T1 construct: host or cells: tetracycline-inducible Flp-In T-REx 293 cells
# Experiment: Hypotonicity-induced Ca2+ influx (Fluo-4, FDSS)
# Type: cell-based
# Outline: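 Flp-In T-REx 293 cells with tetracycline-induced human TRPV4, loaded with Fluo-4 for 60 min at 25 °C. Compound added 5 min before hypotonic mannitol/CaCl2 solution. Ca2+ signal recorded for 4.5 min on FDSS.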
# [1] = Flp-In T-REx 293 cells expressing human TRPV4, examples listed under heading 'Human IC50<50 nM'
# [2] = Flp-In T-REx 293 cells stably expressing human TRPV4, compounds listed by potency bin (<10 nM Tables 96-1/96-2, <3 nM Table 97)
# T1 sequence (Q9HBA0 whole entry): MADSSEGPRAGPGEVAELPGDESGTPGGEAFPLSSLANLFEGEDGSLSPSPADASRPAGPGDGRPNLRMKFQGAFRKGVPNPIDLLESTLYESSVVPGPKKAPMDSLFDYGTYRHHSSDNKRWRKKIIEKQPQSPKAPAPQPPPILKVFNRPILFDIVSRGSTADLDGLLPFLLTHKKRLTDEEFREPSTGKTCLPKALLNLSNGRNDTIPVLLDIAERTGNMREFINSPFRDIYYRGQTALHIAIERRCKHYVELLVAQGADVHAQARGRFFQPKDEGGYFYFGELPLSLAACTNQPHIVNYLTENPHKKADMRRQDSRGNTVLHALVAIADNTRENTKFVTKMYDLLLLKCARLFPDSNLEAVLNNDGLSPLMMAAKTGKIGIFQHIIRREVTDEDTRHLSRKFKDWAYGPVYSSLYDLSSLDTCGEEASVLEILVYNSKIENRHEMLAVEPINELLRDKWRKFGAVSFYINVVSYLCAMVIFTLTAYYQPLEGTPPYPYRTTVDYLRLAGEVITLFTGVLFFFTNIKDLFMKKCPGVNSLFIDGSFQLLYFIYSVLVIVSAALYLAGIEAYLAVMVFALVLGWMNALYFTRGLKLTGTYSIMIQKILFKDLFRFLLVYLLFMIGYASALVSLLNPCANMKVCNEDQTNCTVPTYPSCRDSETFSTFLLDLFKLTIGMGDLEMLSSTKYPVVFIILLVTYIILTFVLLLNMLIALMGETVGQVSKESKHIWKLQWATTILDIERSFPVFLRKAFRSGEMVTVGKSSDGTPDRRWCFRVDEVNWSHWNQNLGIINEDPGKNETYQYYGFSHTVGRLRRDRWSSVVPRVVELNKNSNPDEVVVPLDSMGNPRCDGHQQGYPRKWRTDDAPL
Compound,pIC50 [1],pIC50 [2]
CN(Cc1cccc2ccccc12)C(=O)c1csc(C2(c3nc4c(c(=O)[nH]3)CN(C(=O)[C@H](O)c3cccc(C(F)(F)F)c3)CCC4)CC2)c1 [59-10],> 7.30,> 8.00
O=C([C@H](O)c1cccc(Cl)c1)N1CCc2nc(C3(c4cc(C5CCOCC5)cs4)CC3)[nH]c(=O)c2C1 [15-15],> 7.30,–
O=C([C@H](O)c1cccc(C(F)(F)F)c1)N1CCCc2nc(C3(c4cccc(-c5ccncc5)c4)CC3)[nH]c(=O)c2C1 [42-17],> 7.30,> 8.00
CC(C)c1cncc(C2(c3nc4c(c(=O)[nH]3)CN(C(=O)C(F)(F)c3cccc(C(F)(F)F)c3)CCC4)CC2)c1 [22-1],> 7.30,> 8.52
O=C(C(O)c1cccc(SC(F)(F)F)c1)N1CCc2nc(C3(c4cccc(Cl)c4)CC3)[nH]c(=O)c2C1 (stereo not drawn) [14-18],> 7.30,–
O=C(Cc1cccc(-c2coc3ccccc23)c1)N1CCCc2nc(C3(c4cccc(Cl)c4)CC3)[nH]c(=O)c2C1 [17-118],> 7.30,> 8.00
O=C([C@H](O)c1cccc(-c2cccc(OC(F)(F)F)c2)c1)N1CCCc2nc(C3(c4cncc(-c5ccccc5)c4)CC3)[nH]c(=O)c2C1 [56-6],> 7.30,> 8.00
CC(C)(C)c1cccc(C(O)C(=O)N2CCCc3nc(C4(c5ccccc5)CC4)[nH]c(=O)c3C2)c1 (stereo not drawn) [17-47],> 7.30,–
O=C([C@H](O)c1cccc(Cl)c1)N1CCCc2nc(C3(c4cc(-c5cccnc5)cs4)CC3)[nH]c(=O)c2C1 [39-3],> 7.30,–
"O=C([C@H](O)c1cccc(F)c1F)N1CCc2nc(C3(c4ccccc4)CC3)[nH]c(=O)c2C1 [2-34, (R)-(−)-6-(2-(2,3-difluorophenyl)-2-hydroxyacetyl)-2-(1-phenylcyclopropyl)-5,6,7,8-tetrahydropyrido[4,3-d]pyrimidin-4(3H)-one]",> 7.30,–
O=C(C(O)c1cccc(-c2cc(C(F)(F)F)cc(C(F)(F)F)c2)c1)N1CCCc2nc(C3(c4ccccc4)CC3)[nH]c(=O)c2C1 (stereo not drawn) [49-2],> 7.30,> 8.00
O=C([C@H](O)c1cccc(-c2cccc(C(F)(F)F)c2)c1)N1CCCc2nc(C3(c4cncc(-c5ccccc5)c4)CC3)[nH]c(=O)c2C1 [56-5],> 7.30,> 8.00
CC(C)c1cccc(C2(c3nc4c(c(=O)[nH]3)CN(C(=O)C(F)(F)c3cccc(C(F)(F)F)c3)CC4)CC2)c1 [20-13],> 7.30,–
O=C([C@H](O)c1cccc(-c2cccc(OC(F)(F)F)c2)c1)N1CCCc2nc(C3(c4cc(-c5ccccc5)cs4)CC3)[nH]c(=O)c2C1 [18-26],> 7.30,> 8.00
O=C([C@H](O)c1cccc(C(F)(F)F)c1)N1CCCc2nc(C3(c4cc(C5CCOCC5)cs4)CC3)[nH]c(=O)c2C1 [30-7],> 7.30,> 8.00
CC(C)c1cccc(-c2cccc([C@@H](O)C(=O)N3CCCc4nc(C5(c6cccc(Cl)c6)CC5)[nH]c(=O)c4C3)c2)c1 [50-9],> 7.30,> 8.52
O=C(N1CCc2nc(C3(c4cncc(-c5ccccc5)c4)CC3)[nH]c(=O)c2C1)C(F)(F)c1cccc(Cl)c1 [22-5],> 7.30,> 8.00
O=C([C@H](O)c1cccc(C(F)(F)F)c1)N1CCc2nc(C3(c4cc(C5CCCCCC5)cs4)CC3)[nH]c(=O)c2C1 [15-3],> 7.30,> 8.52
CC(C)C(=O)N1CCN(c2ccc(-c3cccc(C4(c5nc6c(c(=O)[nH]5)CN(C(=O)[C@H](O)c5cccc(C(F)(F)F)c5)CCC6)CC4)c3)cn2)CC1 [42-89],> 7.30,> 8.00

Compound,pIC50 [1],pIC50 [2]
O=C([C@H](O)c1cccc(Cl)c1)N1CCCc2nc(C3(c4cccc(C5CCC(F)(F)CC5)c4)CC3)[nH]c(=O)c2C1 [29-4],> 7.30,> 8.52
N#Cc1cncc(-c2cccc(C3(c4nc5c(c(=O)[nH]4)CN(C(=O)[C@H](O)c4cccc(C(F)(F)F)c4)CCC5)CC3)c2)c1 [42-19],> 7.30,> 8.00
O=C([C@H](O)c1cccc(C(F)(F)F)c1)N1CCc2nc(C3(c4cccc(-c5cccnc5)c4)CC3)[nH]c(=O)c2C1 [37-2],> 7.30,> 8.00
O=C([C@H](O)c1cccc(C(F)(F)F)c1)N1CCCc2nc(C3(c4cc(CCC56CC7CC(CC(C7)C5)C6)cs4)CC3)[nH]c(=O)c2C1 [30-5],> 7.30,> 8.00
CC(C)(C)c1cccc(CC(=O)N2CCCc3nc(C4(c5ccccc5)CC4)[nH]c(=O)c3C2)c1 [17-142],> 7.30,–
CN(C(=O)c1csc(C2(c3nc4c(c(=O)[nH]3)CN(C(=O)[C@H](O)c3cccc(C(F)(F)F)c3)CCC4)CC2)c1)C(C)(C)C [59-19],> 7.30,–
O=C(c1cccc(-c2cccc(C3(c4nc5c(c(=O)[nH]4)CN(C(=O)[C@H](O)c4cccc(C(F)(F)F)c4)CCC5)CC3)c2)c1)N1CCCCC1 [42-9],> 7.30,> 8.52
O=C(COc1cccc(-c2ccccc2)c1)N1CCCc2nc(C3(c4cccc(Cl)c4)CC3)[nH]c(=O)c2C1 [17-105],> 7.30,–
CC(C)(C)c1cccc(-c2cccc([C@@H](O)C(=O)N3CCCc4nc(C5(c6cccc(Cl)c6)CC5)[nH]c(=O)c4C3)c2)c1 [50-7],> 7.30,> 8.00
O=C([C@H](O)c1cccc(C(F)(F)F)c1)N1CCCc2nc(C3(c4cccc(C5=CCN(C(=O)[C@H]6CC[C@H](C(F)(F)F)CC6)CC5)c4)CC3)[nH]c(=O)c2C1 [42-77],> 7.30,> 8.52
O=C(CCc1ccccc1)N1CCC(c2cccc(C3(c4nc5c(c(=O)[nH]4)CN(C(=O)[C@H](O)c4cccc(C(F)(F)F)c4)CCC5)CC3)c2)CC1 [31-11],> 7.30,> 8.52
CC1CCN(c2ccc(-c3cccc(C4(c5nc6c(c(=O)[nH]5)CN(C(=O)[C@H](O)c5cccc(C(F)(F)F)c5)CCC6)CC4)c3)cn2)CC1 [42-10],> 7.30,> 8.52
O=C([C@H](O)c1cccc(-c2cccc(Cl)c2)c1)N1CCCc2nc(C3(c4cc(C5CCCCC5)cs4)CC3)[nH]c(=O)c2C1 [54-10],> 7.30,> 8.00
O=C(C(O)c1cccc(S(F)(F)(F)(F)F)c1)N1CCc2nc(C3(c4cccc(Cl)c4)CC3)[nH]c(=O)c2C1 (stereo not drawn) [14-17],> 7.30,–
O=C([C@H](O)c1cccc(C(F)(F)F)c1)N1CCCc2nc(C3(c4cccc(C5CCN(CC(F)(F)F)CC5)c4)CC3)[nH]c(=O)c2C1 [31-1],> 7.30,> 8.52
O=C([C@H](O)c1cccc(C(F)(F)F)c1)N1CCCc2nc(C3(c4cc(CCC5CC5)cs4)CC3)[nH]c(=O)c2C1 [30-8],> 7.30,> 8.00
CC(C)c1csc(C2(c3nc4c(c(=O)[nH]3)CN(C(=O)C(F)(F)c3cccc(Cl)c3F)CCC4)CC2)c1 [21-6],> 7.30,> 8.00
CC(C(=O)N1CCCc2nc(C3(c4cccc(F)c4)CC3)[nH]c(=O)c2C1)c1cccc(C(F)(F)F)c1 (stereo not drawn) [17-89],> 7.30,> 8.00
O=C([C@H](O)c1cccc(C(F)(F)F)c1)N1CCc2nc(C3(c4cccc(Cl)c4)CC3)[nH]c(=O)c2C1 [3-72],> 7.30,–

# Next, values leading:
pIC50 [1],pIC50 [2],Compound
> 7.30,> 8.00,Cc1cc(Cl)cc(-c2cccc(C(O)C(=O)N3CCc4nc(C5(c6ccccc6)CC5)[nH]c(=O)c4C3)c2)c1 (stereo not drawn) [44-16]
> 7.30,–,O=C(C(O)c1cccc(-c2ccccc2C(F)(F)F)c1)N1CCc2nc(C3(c4ccccc4)CC3)[nH]c(=O)c2C1 (stereo not drawn) [44-54]
> 7.30,–,O=C(C(O)c1cccc(-c2ccc(C(F)(F)F)nc2)c1)N1CCc2nc(C3(c4ccccc4)CC3)[nH]c(=O)c2C1 (stereo not drawn) [44-41]
> 7.30,> 8.00,O=C([C@H](O)c1cccc(-c2cc(F)cc(Cl)c2)c1)N1CCc2nc(C3(c4ccccc4)CC3)[nH]c(=O)c2C1 [44-77]
> 7.30,> 8.00,O=C([C@H](O)c1cccc(Cl)c1)N1CCc2nc(C3(c4cccc(Oc5ccccc5)c4)CC3)[nH]c(=O)c2C1 [14-4]
> 7.30,–,O=C([C@H](O)c1cccc(-c2ccccc2OCc2ccccc2)c1)N1CCc2nc(C3(c4ccccc4)CC3)[nH]c(=O)c2C1 [44-111]
> 7.30,> 8.52,O=C([C@H](O)c1cccc(-c2ccnc(C(F)(F)F)c2)c1)N1CCc2nc(C3(c4ccccc4)CC3)[nH]c(=O)c2C1 [44-79]
> 7.30,> 8.52,N#Cc1cc(Cl)cc(-c2cccc([C@@H](O)C(=O)N3CCCc4nc(C5(c6ccccc6)CC5)[nH]c(=O)c4C3)c2)c1 [49-44]
> 7.30,–,CC(C)(C)c1cccc(-c2cccc(C(O)C(=O)N3CCc4nc(C5(c6ccccc6)CC5)[nH]c(=O)c4C3)n2)c1 (stereo not drawn) [48-9]
> 7.30,> 8.00,O=C(C(O)c1cccc(-c2cc(F)cc(Cl)c2)c1)N1CCc2nc(C3(c4ccccc4)CC3)[nH]c(=O)c2C1 (stereo not drawn) [44-11]
> 7.30,> 8.00,O=C(C(O)c1cccc(-c2cc(Cl)cc(C(F)(F)F)c2)c1)N1CCc2nc(C3(c4ccccc4)CC3)[nH]c(=O)c2C1 (stereo not drawn) [44-3]
> 7.30,–,O=C([C@H](O)c1cccc(C(F)(F)F)c1)N1CCc2nc(C3(c4ccccc4)CC3)[nH]c(=O)c2C1 [3-71]
> 7.30,–,O=C(C(O)c1cccc(Oc2ccccc2)c1)N1CCc2nc(C3(c4cccc(Cl)c4)CC3)[nH]c(=O)c2C1 (stereo not drawn) [14-21]
> 7.30,> 8.00,O=C(C(O)c1cccc(-c2ccc(-c3ccc(Cl)cc3)cc2)c1)N1CCc2nc(C3(c4ccccc4)CC3)[nH]c(=O)c2C1 (stereo not drawn) [44-118]
> 7.30,> 8.00,O=C(C(O)c1cccc(-c2cc3ccccc3s2)c1)N1CCc2nc(C3(c4ccccc4)CC3)[nH]c(=O)c2C1 (stereo not drawn) [44-9]
> 7.30,–,N#Cc1cccc(-c2cccc(C(O)C(=O)N3CCc4nc(C5(c6ccccc6)CC5)[nH]c(=O)c4C3)c2)c1 (stereo not drawn) [44-32]
> 7.30,–,O=C([C@H](O)c1cccc(-c2cccc(F)c2)c1)N1CCc2nc(C3(c4ccccc4)CC3)[nH]c(=O)c2C1 [44-70]
> 7.30,> 8.00,O=C([C@H](O)c1cccc(C(F)(F)F)c1)N1CCCc2nc(C3(c4cccc(-c5csc6ccccc56)c4)CC3)[nH]c(=O)c2C1 [42-28]
